Source: patent USRE50082E1, “(5,6-dihydro)pyrimido[4,5-e]indolizines” (NETHERLANDS TRANSLATIONAL RESEARCH CENTER B.V., priority 2014, dated 2024)
pIC50: −log10 of the molar value.

What follows are molecules tested on MOLT-4 cancer cell line (assay: Cell proliferation assay, MOLT-4 cancer cell line (ATPlite)). Settings: Homo sapiens, MOLT-4; 72 hours incubation, ATPlite 1Step; read-out: IC50 MOLT-4 cell proliferation.
Assay type: cell-based
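Also: luminescence read-out, percent growth versus compound-free DMSO wells as maximum growth, start-of-incubation signal separating growth from cell death, IC50 from logistic curve fit.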
Procedure: 5 μL of compound solution was added and the plates were incubated for an additional 72 hours after which 25 μL of ATPlite 1Step™ (PerkinElmer, Groningen, The Netherlands) solution was added to each well. Luminescence was recorded on an Envision multimode reader. The cell signal at the start of incubation was recorded separately in order to distinguish between cell population growth and cell death. In addition, maximum growth was determined by incubation of a duplicate without compound in the presence of 0.4% DMSO. Percentage growth was used as the main y-axis signal. IC50s were fitted by non-linear regression using IDBS XLfit™5 using a 4-parameter logistic curve, yielding a maximum signal, minimum signal, hill-parameter and IC50.

pIC50 | Compound
> 7.30 | Cc1cc(N2CCN(C)CC2)ccc1Nc1ncc2c(n1)-n1ccc(C(=O)Nc3c(Cl)cccc3Cl)c1CC2 [Example 66, N-(2,6-dichlorophenyl)-2-[2-methyl-4-(4-methylpiperazin-1-yl)anilino]-5,6-dihydropyrimido[4,5-e]indolizine-7-carboxamide]
> 7.30 | CCc1cccc(CC)c1NC(=O)c1ccn2c1CCc1cnc(Nc3ccc(N4CCN(C)CC4)cc3C)nc1-2 [Example 67, N-(2,6-diethylphenyl)-2-[2-methyl-4-(4-methylpiperazin-1-yl)anilino]-5,6-dihydropyrimido[4,5-e]indolizine-7-carboxamide]
> 7.30 | Cc1cccc(C)c1NC(=O)c1ccn2c1CCc1cnc(Nc3ccc(N4CCOCC4)nc3C)nc1-2 [Example 68, N-(2,6-dimethylphenyl)-2-[(2-methyl-6-morpholino-3-pyridyl)amino]-5,6-dihydropyrimido[4,5-e]indolizine-7-carboxamide]
> 7.30 | Cc1cccc(Br)c1NC(=O)c1ccn2c1CCc1cnc(Nc3ccc(N4CCOCC4)nc3C)nc1-2 [Example 70, N-(2-bromo-6-methyl-phenyl)-2-[(2-methyl-6-morpholino-3-pyridyl)amino]-5,6-dihydropyrimido[4,5-e]indolizine-7-carboxamide]
> 7.30 | CCc1cccc(CC)c1NC(=O)c1ccn2c1ccc1cnc(Nc3ccc(N4CCN(C)CC4)cc3OC)nc12 [Example 71, N-(2,6-diethylphenyl)-2-[2-methoxy-4-(4-methylpiperazin-1-yl)anilino]pyrimido[4,5-e]indolizine-7-carboxamide]
> 7.30 | CCc1cccc(C)c1NC(=O)c1ccn2c1CCc1cnc(Nc3ccc(N4CCN(C)CC4)cc3OC)nc1-2 [Example 72, N-(2-ethyl-6-methyl-phenyl)-2-[2-methoxy-4-(4-methylpiperazin-1-yl)anilino]-5,6-dihydropyrimido[4,5-e]indolizine-7-carboxamide]
> 7.30 | COc1cc(N2CCN(C)CC2)ccc1Nc1ncc2c(n1)-n1ccc(C(=O)Nc3c(C)cccc3Br)c1CC2 [Example 73, N-(2-bromo-6-methyl-phenyl)-2-[2-methoxy-4-(4-methylpiperazin-1-yl)anilino]-5,6-dihydropyrimido[4,5-e]indolizine-7-carboxamide]
> 7.30 | COc1cc(N2CCNCC2)ccc1Nc1ncc2c(n1)-n1ccc(C(=O)Nc3c(C)cccc3Cl)c1CC2 [Example 75, N-(2-chloro-6-methyl-phenyl)-2-(2-methoxy-4-piperazin-1-yl-anilino)-5,6-dihydropyrimido[4,5-e]indolizine-7-carboxamide]
> 7.30 | CCc1cccc(CC)c1NC(=O)c1ccn2c1CCc1cnc(Nc3ccc(N4CCNCC4)cc3OC)nc1-2 [Example 76, N-(2,6-diethylphenyl)-2-(2-methoxy-4-piperazin-1-yl-anilino)-5,6-dihydropyrimido[4,5-e]indolizine-7-carboxamide]
6.82 to 7.30 | CCc1cccc(CC)c1NC(=O)c1ccn2c1ccc1cnc(Nc3ccc(N4CCNCC4)cc3OC)nc12 [Example 77, N-(2,6-diethylphenyl)-2-(2-methoxy-4-piperazin-1-yl-anilino)pyrimido[4,5-e]indolizine-7-carboxamide]
> 7.30 | Cc1cc(N2CCNCC2)ccc1Nc1ncc2c(n1)-n1ccc(C(=O)Nc3c(C)cccc3Cl)c1CC2 [Example 78, N-(2-chloro-6-methyl-phenyl)-2-(2-methyl-4-piperazin-1-yl-anilino)-5,6-dihydropyrimido[4,5-e]indolizine-7-carboxamide]
> 7.30 | Cc1cc(N2CCNCC2)ccc1Nc1ncc2c(n1)-n1ccc(C(=O)Nc3c(Cl)cccc3Cl)c1CC2 [Example 79, N-(2,6-dichlorophenyl)-2-(2-methyl-4-piperazin-1-yl-anilino)-5,6-dihydropyrimido[4,5-e]indolizine-7-carboxamide]
> 7.30 | CCc1cccc(CC)c1NC(=O)c1ccn2c1CCc1cnc(Nc3ccc(N4CCNCC4)cc3C)nc1-2 [Example 80, N-(2,6-diethylphenyl)-2-(2-methyl-4-piperazin-1-yl-anilino)-5,6-dihydropyrimido[4,5-e]indolizine-7-carboxamide]
> 7.30 | Cc1cc(N2CCNCC2)ccc1Nc1ncc2c(n1)-n1ccc(C(=O)Nc3c(C)cccc3Br)c1CC2 [Example 81, N-(2-bromo-6-methyl-phenyl)-2-(2-methyl-4-piperazin-1-yl-anilino)-5,6-dihydropyrimido[4,5-e]indolizine-7-carboxamide]
> 7.30 | CCc1cccc(C)c1NC(=O)c1ccn2c1CCc1cnc(Nc3ccc(N4CCNCC4)cc3C)nc1-2 [Example 82, N-(2-ethyl-6-methyl-phenyl)-2-(2-methyl-4-piperazin-1-yl-anilino)-5,6-dihydropyrimido[4,5-e]indolizine-7-carboxamide]
> 7.30 | CCc1cccc(CC)c1NC(=O)c1ccn2c1CCc1cnc(Nc3ccc(N4CCOCC4)cc3C)nc1-2 [Example 83, N-(2,6-diethylphenyl)-2-(2-methyl-4-morpholino-anilino)-5,6-dihydropyrimido[4,5-e]indolizine-7-carboxamide]
> 7.30 | COc1cc(OC2CCN(C)C2)ccc1Nc1ncc2c(n1)-n1ccc(C(=O)Nc3c(C)cccc3C)c1CC2 (stereo not drawn) [Example 84, N-(2,6-dimethylphenyl)-2-[2-methoxy-4-(1-methylpyrrolidin-3-yl)oxy-anilino]-5,6-dihydropyrimido[4,5-e]indolizine-7-carboxamide]
> 7.30 | Cc1cccc(Cl)c1NC(=O)c1ccn2c1CCc1cnc(Nc3ccc(N4CCN(C)CC4)cc3OC(F)F)nc1-2 [Example 86, N-(2-chloro-6-methyl-phenyl)-2-[2-(difluoromethoxy)-4-(4-methylpiperazin-1-yl)anilino]-5,6-dihydropyrimido[4,5-e]indolizine-7-carboxamide]
6.82 to 7.30 | CCc1nn(CCOC)c(CC)c1NC(=O)c1ccn2c1CCc1cnc(Nc3ccc(C(=O)N(C)CCCN(C)C)cc3OC)nc1-2 [Example 88, N-[3,5-diethyl-1-(2-methoxyethyl)pyrazol-4-yl]-2-[4-[3-(dimethylamino)propyl-methyl-carbamoyl]-2-methoxy-anilino]-5,6-dihydropyrimido[4,5-e]indolizine-7-carboxamide]
6.82 to 7.30 | COCCn1nc(C)c(NC(=O)c2ccn3c2CCc2cnc(Nc4ccc(OC5CNC5)cc4OC)nc2-3)c1C [Example 91, 2-[4-(Azetidin-3-yloxy)-2-methoxy-anilino]-N-[1-(2-methoxyethyl)-3,5-dimethyl-pyrazol-4-yl]-5,6-dihydropyrimido[4,5-e]indolizine-7-carboxamide]
6.82 to 7.30 | CCc1n[nH]c(CC)c1NC(=O)c1ccn2c1CCc1cnc(Nc3ccc(OC4CNC4)cc3OC)nc1-2 [Example 92, 2-[4-(Azetidin-3-yloxy)-2-methoxy-anilino]-N-(3,5-diethyl-pyrazol-4-yl)-5,6-dihydropyrimido[4,5-e]indolizine-7-carboxamide]
> 7.30 | CCc1nn(CCOC)c(CC)c1NC(=O)c1ccn2c1CCc1cnc(Nc3ccc(OC4CNC4)cc3OC)nc1-2 [Example 93, 2-[4-(Azetidin-3-yloxy)-2-methoxy-anilino]-N-[3,5-diethyl-1-(2-methoxyethyl)pyrazol-4-yl]-5,6-dihydropyrimido[4,5-e]indolizine-7-carboxamide]
> 7.30 | COCCn1nc(C)c(NC(=O)c2ccn3c2CCc2cnc(Nc4ccc(-c5c(C)nn(C)c5C)cc4OC)nc2-3)c1C [Example 94, N-[1-(2-methoxyethyl)-3,5-dimethyl-pyrazol-4-yl]-2-[2-methoxy-4-(1,3,5-trimethylpyrazol-4-yl)anilino]-5,6-dihydropyrimido[4,5-e]indolizine-7-carboxamide]
> 7.30 | COCCn1nc(C)c(NC(=O)c2ccn3c2ccc2cnc(Nc4ccc(N5CCNCC5)cc4OC)nc23)c1C [Example 96, N-[1-(2-methoxyethyl)-3,5-dimethyl-pyrazol-4-yl]-2-(2-methoxy-4-piperazin-1-yl-anilino)pyrimido[4,5-e]indolizine-7-carboxamide]
> 7.30 | CCc1n[nH]c(CC)c1NC(=O)c1ccn2c1ccc1cnc(Nc3ccc(N4CCNCC4)cc3OC)nc12 [Example 97, N-(3,5-diethyl-1H-pyrazol-4-yl)-2-(2-methoxy-4-piperazin-1-yl-anilino)pyrimido[4,5-e]indolizine-7-carboxamide]
6.82 to 7.30 | COc1cc(N2CCNCC2)ccc1Nc1ncc2c(n1)-n1ccc(C(=O)Nc3c(C)nn(CC(C)(C)O)c3C)c1CC2 [Example 98, N-[1-(2-hydroxy-2-methyl-propyl)-3,5-dimethyl-pyrazol-4-yl]-2-(2-methoxy-4-piperazin-1-yl-anilino)-5,6-dihydropyrimido[4,5-e]indolizine-7-carboxamide]
> 7.30 | [2H]C([2H])([2H])Oc1cc(N2CCN(C)CC2)ccc1Nc1ncc2c(n1)-n1ccc(C(=O)Nc3c(CC)nn(CCOC)c3CC)c1CC2 [Example 100, N-[3,5-diethyl-1-(2-methoxyethyl)pyrazol-4-yl]-2-[4-(4-methylpiperazin-1-yl)-2-(trideuteriomethoxy)anilino]-5,6-dihydropyrimido[4,5-e]indolizine-7-carboxamide]
6.82 to 7.30 | CCc1cccc(CC)c1NC(=O)c1ccn2c1CCc1cnc(Nc3cc(Cl)c(N4CCN(C)CC4)cc3OC)nc1-2 [Example 102, 2-[5-Chloro-2-methoxy-4-(4-methylpiperazin-1-yl)anilino]-N-(2,6-diethylphenyl)-5,6-dihydropyrimido[4,5-e]indolizine-7-carboxamide]

Compound | pIC50
[2H]C([2H])([2H])Oc1cc(N2CCN(C)CC2)ccc1Nc1ncc2c(n1)-n1ccc(C(=O)Nc3c(CC)cccc3CC)c1CC2 [Example 99, N-(2,6-diethylphenyl)-2-[4-(4-methylpiperazin-1-yl)-2-(trideuteriomethoxy)anilino]-5,6-dihydropyrimido[4,5-e]indolizine-7-carboxamide] | > 7.30
COc1cc(C(=O)NC2CCOCC2)ccc1Nc1ncc2c(n1)-n1ccc(C(=O)Nc3c(C)cccc3C)c1CC2 [Example 103, N-(2,6-dimethylphenyl)-2-[2-methoxy-4-(tetrahydropyran-4-ylcarbamoyl)anilino]-5,6-dihydropyrimido[4,5-e]indolizine-7-carboxamide] | > 7.30
